Measured values published in US20250114374A1, “BCL-2 INHIBITORS” (Newave Pharmaceutical Inc., priority 2021, published 2025).
Read-outs that look alike come from different tables or passages of the source.

Test system: RS4; 11 with G101V mutation
Experiment: In vitro anti-proliferation assay (ATPlite luminescence) in BCL-2-dependent ALL cell line RS4;11 with G101V mutation
Type: cell-based
Details: read-out: RS411-G101V IC50
Procedure: Cell antiproliferation was assayed by PerkinElmer ATPlite™ Luminescence Assay System. Briefly, the various test cancer cell lines were plated at a density of about 1×10^4 cells per well in Costar 96-well plates, and were incubated with different concentrations of compounds for about 72 hours in medium supplemented with 10% FBS. One lyophilized substrate solution vial was then reconstituted by adding 5 mL of substrate buffer solution, and was agitated gently until the solution was homogeneous. About 50 μL of mammalian cell lysis solution was added to 100 μL of cell suspension per well of a microplate, and the plate was shaken for about five minutes in an orbital shaker at ˜700 rpm. This procedure was used to lyse the cells and to stabilize the ATP. Next, 50 μL substrate solution was added to the wells and microplate was shaken for five minutes in an orbital shaker at ˜700 rpm. Finally, the luminescence was measured by a PerkinElmer TopCount® Microplate Scintillation Counter. Such assays, carried out with a range of doses of test compounds, allowed the determination of the cellular anti-antiproliferative IC50 of the compounds of the present invention.
The following table lists the IC50 values of another study for certain compounds of the invention.

[1] = cellular anti-proliferative IC50, about 72 hours, medium with 10% FBS, ATPlite

SMILES | IC50 (Homo sapiens, RS4-11, 72 h) [nM] | IC50 [1] [nM]
COc1cc2c(nc1N1CCOC[C@@H]1C)COC[C@@H]2N1CCN(C2CC3(CCN(c4ccc(C(=O)NS(=O)(=O)c5cc6c(c([N+](=O)[O-])c5)N[C@H](C5CCOCC5)CO6)c(N5c6cc7cc[nH]c7nc6O[C@H]6COCC[C@@H]65)c4)CC3)C2)[C@H](c2ccccc2OC(C)C)C1 [Example 233, 4-(2-((R)-2-(2-isopropoxyphenyl)-4-((R)-3-methoxy-2-((S)-3-methylmorpholino)-5,8-dihydro-6H-pyrano[3,4-b]pyridin-5-yl)piperazin-1-yl)-7-azaspiro[3.5]nonan-7-yl)-N-(((R)-5-nitro-3-(tetrahydro-2H-pyran-4-yl)-3,4-dihydro-2H-benzo[b][1,4]oxazin-7-yl)sulfonyl)-2-((5aS,9aR)-6,7,9,9a-tetrahydro-1H-pyrano[3,4-b]pyrrolo[3′,2′:5,6]pyrido[3,2-e][1,4]oxazin-5(5aH)-yl)benzamide] | 4.64 | –
Cc1ccccc1[C@@H]1CN(C2CCOCC2)CCN1C1CC2(CCN(c3ccc(C(=O)NS(=O)(=O)c4cc5c(c([N+](=O)[O-])c4)N[C@H](C4CCOCC4)CO5)c(N4c5cc6cc[nH]c6nc5O[C@H]5COCC[C@@H]54)c3)CC2)C1 [Example 183, N—(((R)-5-nitro-3-(tetrahydro-2H-pyran-4-yl)-3,4-dihydro-2H-benzo[b][1,4]oxazin-7-yl)sulfonyl)-2-((5aS,9aR)-6,7,9,9a-tetrahydro-1H-pyrano[3,4-b]pyrrolo[3′,2′:5,6]pyrido[3,2-e][1,4]oxazin-5(5aH)-yl)-4-(2-((R)-4-(tetrahydro-2H-pyran-4-yl)-2-(o-tolyl)piperazin-1-yl)-7-azaspiro[3.5]nonan-7-yl)benzamide] | 73.3 | –
CC(C)Oc1ccccc1[C@@H]1CN([C@@H]2COCc3cc(F)c(F)cc32)CCN1C1CC2(CCN(c3ccc(C(=O)NS(=O)(=O)c4cc5c(c([N+](=O)[O-])c4)N[C@H](C4CCOCC4)CO5)c(N4c5cc6cc[nH]c6nc5O[C@H]5COCC[C@@H]54)c3)CC2)C1 [Example 217, 4-(2-((R)-4-((S)-6,7-difluoroisochroman-4-yl)-2-(2-isopropoxyphenyl)piperazin-1-yl)-7-azaspiro[3.5]nonan-7-yl)-N-(((R)-5-nitro-3-(tetrahydro-2H-pyran-4-yl)-3,4-dihydro-2H-benzo[b][1,4]oxazin-7-yl)sulfonyl)-2-((5aS,9aR)-6,7,9,9a-tetrahydro-1H-pyrano[3,4-b]pyrrolo[3′,2′:5,6]pyrido[3,2-e][1,4]oxazin-5(5aH)-yl)benzamide] | 94.9 | –
Cc1ccccc1[C@@H]1CN(C2CCC(N3CCOC[C@@H]3C)CC2)CCN1C1CC2(CCN(c3ccc(C(=O)NS(=O)(=O)c4cc5c(c([N+](=O)[O-])c4)N[C@H](C4CCOCC4)CO5)c(N4c5cc6cc[nH]c6nc5O[C@H]5COCC[C@@H]54)c3)CC2)C1 (stereo partly drawn) [Example 204, 4-(2-((R)-4-((1R,4S)-4-((S)-3-methylmorpholino)cyclohexyl)-2-(o-tolyl)piperazin-1-yl)-7-azaspiro[3.5]nonan-7-yl)-N-(((R)-5-nitro-3-(tetrahydro-2H-pyran-4-yl)-3,4-dihydro-2H-benzo[b][1,4]oxazin-7-yl)sulfonyl)-2-((5aS,9aR)-6,7,9,9a-tetrahydro-1H-pyrano[3,4-b]pyrrolo[3′,2′:5,6]pyrido[3,2-e][1,4]oxazin-5(5aH)-yl)benzamide] | – | 27.5
COc1cc2c(nc1N1CCOC[C@@H]1C)COC[C@H]2N1CCN(C2CC3(CCN(c4ccc(C(=O)NS(=O)(=O)c5cc6c(c([N+](=O)[O-])c5)N[C@H](C5CCOCC5)CO6)c(N5c6cc7cc[nH]c7nc6O[C@H]6COCC[C@@H]65)c4)CC3)C2)[C@H](c2ccccc2OC(C)C)C1 [Example 232, 4-(2-((R)-2-(2-isopropoxyphenyl)-4-((S)-3-methoxy-2-((S)-3-methylmorpholino)-5,8-dihydro-6H-pyrano[3,4-b]pyridin-5-yl)piperazin-1-yl)-7-azaspiro[3.5]nonan-7-yl)-N-(((R)-5-nitro-3-(tetrahydro-2H-pyran-4-yl)-3,4-dihydro-2H-benzo[b][1,4]oxazin-7-yl)sulfonyl)-2-((5aS,9aR)-6,7,9,9a-tetrahydro-1H-pyrano[3,4-b]pyrrolo[3′,2′:5,6]pyrido[3,2-e][1,4]oxazin-5(5aH)-yl)benzamide] | 84.2 | –
CC(C)Oc1ccccc1[C@@H]1CN(Cc2ccc(N3CCOC[C@@H]3C)nc2)CCN1C1CC2(CCN(c3ccc(C(=O)NS(=O)(=O)c4cc5c(c([N+](=O)[O-])c4)N[C@H](C4CCOCC4)CO5)c(N4c5cc6cc[nH]c6nc5O[C@H]5COCC[C@@H]54)c3)CC2)C1 [Example 260, 2-[(3R,8S)-2,5-dioxa-9,15,17-triazatetracyclo[8.7.0.0^{3,8}.0^{12,16}]heptadeca-1(10),11,13,16-tetraen-9-yl]-4-{2-[(2R)-2-(2-isopropoxyphenyl)-4-({6-[(3S)-3-methylmorpholin-4-yl]pyridin-3-yl}methyl)piperazin-1-yl]-7-azaspiro[3.5]nonan-7-yl}-N-[(3R)-5-nitro-3-(oxan-4-yl)-3,4-dihydro-2H-1,4-benzoxazin-7-ylsulfonyl]benzamide] | – | 8.65
CC(C)Oc1ccccc1[C@@H]1CN([C@@H]2CCOc3c(F)cc(F)cc32)CCN1C1CC2(CCN(c3ccc(C(=O)NS(=O)(=O)c4cc5c(c([N+](=O)[O-])c4)N[C@H](C4CCOCC4)CO5)c(N4c5cc6cc[nH]c6nc5O[C@H]5COCC[C@@H]54)c3)CC2)C1 [Example 215, 4-(2-((R)-4-((R)-6,8-difluorochroman-4-yl)-2-(2-isopropoxyphenyl)piperazin-1-yl)-7-azaspiro[3.5]nonan-7-yl)-N-(((R)-5-nitro-3-(tetrahydro-2H-pyran-4-yl)-3,4-dihydro-2H-benzo[b][1,4]oxazin-7-yl)sulfonyl)-2-((5aS,9aR)-6,7,9,9a-tetrahydro-1H-pyrano[3,4-b]pyrrolo[3′,2′:5,6]pyrido[3,2-e][1,4]oxazin-5(5aH)-yl)benzamide] | 48 | –
Cc1cc2c(CN3CCN(C4CC5(CCN(c6ccc(C(=O)NS(=O)(=O)c7ccc(NCC8CCC(C)(O)CC8)c([N+](=O)[O-])c7)c(N7c8cc9cc[nH]c9nc8O[C@H]8COCC[C@@H]87)c6)CC5)C4)[C@@H](c4ccccc4OC(C)C)C3)cnc(N3CCOCC3)c2o1 (stereo partly drawn) [Example 147, 2-[(3R,8S)-2,5-dioxa-9,15,17-triazatetracyclo[8.7.0.0^{3,8}.0^{12,16}]heptadeca-1(10),11,13,16-tetraen-9-yl]-4-{2-[(2S)-2-(2-isopropoxyphenyl)-4-{[2-methyl-7-(morpholin-4-yl)furo[2,3-c]pyridin-4-yl]methyl}piperazin-1-yl]-7-azaspiro[3.5]nonan-7-yl}-N-[3-nitro-4-({[(1r,4r)-4-hydroxy-4-methylcyclohexyl]methyl}amino)benzenesulfonyl]benzamide] | – | 31.9
CC(C)Oc1ccccc1[C@@H]1CN([C@H]2CCOc3cc(F)c(F)cc32)CCN1C1CC2(CCN(c3ccc(C(=O)NS(=O)(=O)c4cc5c(c([N+](=O)[O-])c4)N[C@H](C4CCOCC4)CO5)c(N4c5cc6cc[nH]c6nc5O[C@H]5COCC[C@@H]54)c3)CC2)C1 [Example 210, 4-{2-[(2R)-4-[(4S)-6,7-difluoro-3,4-dihydro-2H-1-benzopyran-4-yl]-2-(2-isopropoxyphenyl)piperazin-1-yl]-7-azaspiro[3.5]nonan-7-yl}-2-[(3R,8S)-2,5-dioxa-9,15,17-triazatetracyclo[8.7.0.0^{3,8}.0^{12,16}]heptadeca-1(10),11,13,16-tetraen-9-yl]-N-[(3R)-5-nitro-3-(oxan-4-yl)-3,4-dihydro-2H-1,4-benzoxazin-7-ylsulfonyl]benzamide] | – | 37.8
